Results from ChEMBL document CHEMBL1201862, “PubChem BioAssay data set” (2004).
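Five compound concentrations were applied to cells in 96-well plates for 48 hours; endpoints were derived by simple linear interpolation of the resulting dose-response curve. The concentration for 50% growth inhibition is given as GI50.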 Active and inactive are the calls of the source. Cut-off read from the data, not from the text of the source: active = GI50 up to about 1.1 µM and inactive = higher.

What was measured:
Experiment in all cases: DTP human tumour cell line panel, 48 h
COLO 205 = tested on: COLO 205
SK-MEL-2 = tested on: SK-MEL-2
IGROV-1 = tested on: IGROV-1
T47D = tested on: T47D
OVCAR-8 = tested on: OVCAR-8
U-251 = tested on: U-251
A549 = tested on: A549
SN12C = tested on: SN12C
M14 = tested on: M14
MDA-N = tested on: MDA-N
NCI-H23 = tested on: NCI-H23
MDA-MB-231 = tested on: MDA-MB-231
SF-539 = tested on: SF-539
HCT-116 = tested on: HCT-116
HT-29 = tested on: HT-29
UACC-257 = tested on: UACC-257
SR = tested on: SR
A498 = tested on: A498
SNB-19 = tested on: SNB-19

In the case of `O=C(CC(=O)N(C(=O)c1ccccc1)c1ccc(Cl)cc1)N/N=C\c1ccccc1O`, the GI50 (COLO 205) is reported as 85.5 µM (inactive), the GI50 (SK-MEL-2) is reported as 45.1 µM (inactive) and the GI50 (IGROV-1) is reported as 25.4 µM (inactive). The GI50 (T47D) was 49.7 µM (inactive), the GI50 (OVCAR-8) was 35.2 µM (inactive) and the GI50 (U-251) was 48.2 µM (inactive). For the same compound, the GI50 (A549) was 82 µM (inactive), the GI50 (SN12C) was > 100 µM (inactive) and the GI50 (M14) was > 100 µM (inactive). For the same compound, the GI50 (MDA-N) was > 100 µM (inactive), the GI50 (NCI-H23) was 43.4 µM (inactive) and the GI50 (MDA-MB-231) was 12.9 µM (inactive). For the same compound, the GI50 (SF-539) was 36.1 µM (inactive), the GI50 (HCT-116) was 30.6 µM (inactive) and the GI50 (HT-29) was > 100 µM (inactive). The GI50 (UACC-257) was > 100 µM (inactive), the GI50 (SR) was 29.4 µM (inactive) and the GI50 (A498) was 65 µM (inactive). For the same compound, the GI50 (SNB-19) was 30.3 µM (inactive).
For `COC(NC(N)=O)C(=O)O` (stereo not drawn), the GI50 (COLO 205) was > 100 µM (inactive), the GI50 (SK-MEL-2) was > 100 µM (inactive) and the GI50 (IGROV-1) was > 100 µM (inactive). For the same compound, the GI50 (T47D) was > 100 µM (inactive), the GI50 (OVCAR-8) was > 100 µM (inactive) and the GI50 (U-251) was > 100 µM (inactive). For the same compound, the GI50 (A549) was > 100 µM (inactive), the GI50 (SN12C) was > 100 µM (inactive) and the GI50 (M14) was > 100 µM (inactive). The GI50 (MDA-N) was > 100 µM (inactive), the GI50 (NCI-H23) was > 100 µM (inactive) and the GI50 (MDA-MB-231) was > 100 µM (inactive). For the same compound, the GI50 (SF-539) was > 100 µM (inactive), the GI50 (HCT-116) was > 100 µM (inactive) and the GI50 (HT-29) was > 100 µM (inactive). The GI50 (UACC-257) was > 100 µM (inactive), the GI50 (SR) was > 100 µM (inactive) and the GI50 (A498) was > 100 µM (inactive). The GI50 (SNB-19) was > 100 µM (inactive).
With `COc1ccc2c(c1)O[C@@H]1[C@@H](OC3OC(CO)C(O)C(O)C3O)Oc3cc(OC)c(OC)cc3[C@]1(O)C2=O` (stereo partly drawn) the GI50 (COLO 205) was > 100 µM (inactive), the GI50 (SK-MEL-2) was > 100 µM (inactive) and the GI50 (IGROV-1) was > 100 µM (inactive). For the same compound, the GI50 (T47D) was > 100 µM (inactive), the GI50 (OVCAR-8) was > 100 µM (inactive) and the GI50 (U-251) was > 100 µM (inactive). For the same compound, the GI50 (A549) was > 100 µM (inactive), the GI50 (SN12C) was > 100 µM (inactive) and the GI50 (M14) was > 100 µM (inactive). The GI50 (MDA-N) was > 100 µM (inactive), the GI50 (NCI-H23) was > 100 µM (inactive) and the GI50 (MDA-MB-231) was > 100 µM (inactive). For the same compound, the GI50 (SF-539) was > 100 µM (inactive), the GI50 (HCT-116) was > 100 µM (inactive) and the GI50 (HT-29) was > 100 µM (inactive). For the same compound, the GI50 (UACC-257) was > 100 µM (inactive), the GI50 (SR) was > 100 µM (inactive) and the GI50 (A498) was > 100 µM (inactive). For the same compound, the GI50 (SNB-19) was > 100 µM (inactive).
For `Cc1ccc(CC2(OCCN(C)C)CCC(C(C)(C)C)CC2)cc1` (stereo not drawn), the GI50 (COLO 205) was 1.48 µM (inactive), the GI50 (SK-MEL-2) was 2.11 µM (inactive) and the GI50 (IGROV-1) was 8.99 µM (inactive). The GI50 (T47D) was 2.68 µM (inactive), the GI50 (OVCAR-8) was 9.4 µM (inactive) and the GI50 (U-251) was 2.41 µM (inactive). The GI50 (A549) was 7 µM (inactive), the GI50 (SN12C) was 5.97 µM (inactive) and the GI50 (M14) was 1.87 µM (inactive). The GI50 (MDA-N) was 2.28 µM (inactive), the GI50 (NCI-H23) was 11.4 µM (inactive) and the GI50 (MDA-MB-231) was 5.56 µM (inactive). The GI50 (SF-539) was 3.26 µM (inactive), the GI50 (HCT-116) was 2.26 µM (inactive) and the GI50 (HT-29) was 2.23 µM (inactive). The GI50 (UACC-257) was 2.09 µM (inactive), the GI50 (SR) was 2.08 µM (inactive) and the GI50 (A498) was 11.4 µM (inactive). The GI50 (SNB-19) was 5.28 µM (inactive).
With `O=C(Oc1cccc2cccnc12)c1cc2cc(CCl)ccc2oc1=O` the GI50 (COLO 205) was 6.3 µM (inactive), the GI50 (SK-MEL-2) was 17.6 µM (inactive) and the GI50 (IGROV-1) was 24.4 µM (inactive). For the same compound, the GI50 (T47D) was 4.29 µM (inactive), the GI50 (OVCAR-8) was 34 µM (inactive) and the GI50 (U-251) was 24.3 µM (inactive). The GI50 (A549) was 27.7 µM (inactive), the GI50 (SN12C) was 10.6 µM (inactive) and the GI50 (M14) was 5.64 µM (inactive). The GI50 (MDA-N) was 16.1 µM (inactive), the GI50 (NCI-H23) was 8.39 µM (inactive) and the GI50 (MDA-MB-231) was 27.1 µM (inactive). The GI50 (SF-539) was 18 µM (inactive), the GI50 (HCT-116) was 3.4 µM (inactive) and the GI50 (HT-29) was 8.09 µM (inactive). The GI50 (UACC-257) was 6.05 µM (inactive), the GI50 (SR) was 4.27 µM (inactive) and the GI50 (A498) was 48.8 µM (inactive). The GI50 (SNB-19) was 43.7 µM (inactive).
`CC(=O)O[C@H]1C(=O)[C@@]2(C)[C@H]([C@H](OC(=O)c3ccccc3)[C@]3(O)C[C@H](OC(=O)[C@H](O)[C@@H](NC(=O)c4ccccc4)c4ccccc4C)C(C)=C1C3(C)C)[C@]1(OC(C)=O)CO[C@@H]1C[C@@H]2O` was tested, and the GI50 (COLO 205) was 0.136 µM (active), the GI50 (SK-MEL-2) was 2.34 µM (inactive) and the GI50 (IGROV-1) was 0.449 µM (active). The GI50 (T47D) was > 25 µM (inactive), the GI50 (OVCAR-8) was 1.41 µM (inactive) and the GI50 (U-251) was 0.361 µM (active). The GI50 (A549) was 1.7 µM (inactive), the GI50 (SN12C) was 2.11 µM (inactive) and the GI50 (M14) was 0.55 µM (active). For the same compound, the GI50 (MDA-N) was 0.0632 µM (active), the GI50 (NCI-H23) was 0.948 µM (active) and the GI50 (MDA-MB-231) was 3.18 µM (inactive). For the same compound, the GI50 (SF-539) was 0.433 µM (active), the GI50 (HCT-116) was 0.177 µM (active) and the GI50 (HT-29) was 0.13 µM (active). For the same compound, the GI50 (UACC-257) was 0.718 µM (active), the GI50 (SR) was 0.136 µM (active) and the GI50 (A498) was 0.444 µM (active). The GI50 (SNB-19) was 1.27 µM (inactive).
With `CN/C(=N\CCSCc1nc[nH]c1C)NC#N` [CIMETIDINE] the GI50 (COLO 205) was > 100 µM (inactive), the GI50 (SK-MEL-2) was > 100 µM (inactive) and the GI50 (IGROV-1) was > 100 µM (inactive). For the same compound, the GI50 (T47D) was > 100 µM (inactive), the GI50 (OVCAR-8) was > 100 µM (inactive) and the GI50 (U-251) was > 100 µM (inactive). For the same compound, the GI50 (A549) was > 100 µM (inactive), the GI50 (SN12C) was > 100 µM (inactive) and the GI50 (M14) was > 100 µM (inactive). For the same compound, the GI50 (MDA-N) was > 100 µM (inactive), the GI50 (NCI-H23) was > 100 µM (inactive) and the GI50 (MDA-MB-231) was > 100 µM (inactive). For the same compound, the GI50 (SF-539) was > 100 µM (inactive), the GI50 (HCT-116) was > 100 µM (inactive) and the GI50 (HT-29) was > 100 µM (inactive). The GI50 (UACC-257) was > 100 µM (inactive), the GI50 (SR) was > 100 µM (inactive) and the GI50 (A498) was 91.6 µM (inactive). For the same compound, the GI50 (SNB-19) was > 100 µM (inactive).
